The target in the test is Death-associated protein kinase 1 (Homo sapiens, UniProt P53355). Briefly: Binding affinity to DAPK1 (unknown origin) assessed as dissociation constant by ITC analysis. Background: ITC needs no label: the signal is the heat of the interaction.

Data on one compound can be found in ChEMBL document CHEMBL6127040, “Discovery and optimization of isoliquiritigenin as a death-associated protein kinase 1 inhibitor” (Eur J Med Chem, 2024).

Chain of Death-associated protein kinase 1 (P53355 whole entry): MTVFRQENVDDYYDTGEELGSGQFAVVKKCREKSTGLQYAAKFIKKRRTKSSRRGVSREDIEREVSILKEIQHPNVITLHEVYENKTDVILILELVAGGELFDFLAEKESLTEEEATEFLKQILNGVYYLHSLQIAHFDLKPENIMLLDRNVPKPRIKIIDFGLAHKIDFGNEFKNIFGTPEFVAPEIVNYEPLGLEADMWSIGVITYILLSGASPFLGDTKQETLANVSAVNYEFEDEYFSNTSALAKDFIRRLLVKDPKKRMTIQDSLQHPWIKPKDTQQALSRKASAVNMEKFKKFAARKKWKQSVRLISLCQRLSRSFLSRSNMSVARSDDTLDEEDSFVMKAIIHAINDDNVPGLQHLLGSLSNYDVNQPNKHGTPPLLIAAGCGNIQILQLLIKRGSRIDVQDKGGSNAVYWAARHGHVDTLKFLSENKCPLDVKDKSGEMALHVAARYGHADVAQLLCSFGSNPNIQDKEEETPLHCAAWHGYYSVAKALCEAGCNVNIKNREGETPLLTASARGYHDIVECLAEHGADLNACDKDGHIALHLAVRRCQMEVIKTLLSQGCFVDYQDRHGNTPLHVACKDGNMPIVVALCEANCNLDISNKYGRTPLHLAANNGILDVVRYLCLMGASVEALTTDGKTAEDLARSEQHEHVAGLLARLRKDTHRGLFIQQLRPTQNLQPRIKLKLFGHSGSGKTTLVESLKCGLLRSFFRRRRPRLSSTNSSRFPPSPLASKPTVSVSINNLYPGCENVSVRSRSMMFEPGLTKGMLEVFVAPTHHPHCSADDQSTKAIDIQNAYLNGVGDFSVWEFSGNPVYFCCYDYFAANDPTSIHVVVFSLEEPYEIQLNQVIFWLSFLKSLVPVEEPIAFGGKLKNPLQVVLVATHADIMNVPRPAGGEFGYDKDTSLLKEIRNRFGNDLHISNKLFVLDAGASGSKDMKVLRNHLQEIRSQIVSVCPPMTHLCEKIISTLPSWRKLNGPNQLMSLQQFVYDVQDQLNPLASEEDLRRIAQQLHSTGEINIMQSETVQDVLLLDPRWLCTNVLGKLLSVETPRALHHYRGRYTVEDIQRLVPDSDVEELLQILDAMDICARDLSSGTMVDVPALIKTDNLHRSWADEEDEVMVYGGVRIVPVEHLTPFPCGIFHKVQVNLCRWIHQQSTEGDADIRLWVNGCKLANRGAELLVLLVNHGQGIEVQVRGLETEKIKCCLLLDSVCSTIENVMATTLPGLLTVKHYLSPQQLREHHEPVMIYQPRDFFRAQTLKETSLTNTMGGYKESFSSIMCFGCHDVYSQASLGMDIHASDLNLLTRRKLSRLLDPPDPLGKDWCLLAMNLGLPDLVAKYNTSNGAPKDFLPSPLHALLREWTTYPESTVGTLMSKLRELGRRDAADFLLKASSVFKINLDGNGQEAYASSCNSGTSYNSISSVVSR

In the case of `O=C(/C=C/c1ccc(O)cc1)c1ccc(O)cc1O` [ISOLIQUIRITIGENIN], the Kd – broadly, the concentration at which binding is half-saturated – came out at 2480 nM.
